In ChEMBL document CHEMBL5030556, “Selection and Identification of Novel Antibacterial Agents against Planktonic Growth and Biofilm Formation of Enterococcus faecalis” (J Med Chem, 2021):
Values after ≈ are worked out from the molar mass of the structure shown. Active and inactive are the calls of the source. No cut-off for these calls is given here.

What was measured:
Streptococcus agalactiae = assay: Antibacterial activity against Streptococcus agalactiae NSGC64 assessed as reduction in visible bacterial growth incubated for 16 to 20 hrs by microdilution broth assay; type: functional; details: time 16-20 hrs
[1] = Inhibition of Enterococcus faecalis OG1RF YycG autophosphorylation by Kinase-Glo luminescent kinase assay
Enterococcus faecalis [2] = assay: Antibiofilm activity against Enterococcus faecalis assessed as fold reduction in yycF gene expression at 25 uM incubated for 6 hrs by qRT-PCR analysis; type: functional
Staphylococcus aureus [3] = assay: Antibacterial activity against Staphylococcus aureus ATCC 29213 assessed as reduction in visible bacterial growth incubated for 16 to 20 hrs by microdilution broth assay; type: functional; details: time 16-20 hrs
[4] = Cytotoxicity against african green monkey Vero cells assessed as inhibition of cell growth by MTT assay; type: cell-based; details: chlorocebus sabaeus
Enterococcus faecalis [5] = assay: Antibiofilm activity against Enterococcus faecalis assessed as fold reduction in sprE gene expression at 25 uM incubated for 6 hrs by qRT-PCR analysis; type: functional
Enterococcus faecalis [6] = assay: Antibiofilm activity against Enterococcus faecalis assessed as fold reduction in fsrB gene expression at 25 uM incubated for 6 hrs by qRT-PCR analysis; type: functional
Enterococcus faecalis [7] = assay: Antibiofilm activity against Enterococcus faecalis assessed as inhibition of biofilm at 1/2 times of MIC incubated for 24 hrs; type: functional; design: scale not given: the % may be the effect or the level left
Enterococcus faecalis [8] = assay: Effect on initial adhesion capacity of Enterococcus faecalis assessed as attached cells at 25 uM for 6 hrs by crystal violet staining based microscopic assay (reference value: 0.412); type: functional
Enterococcus faecalis [9] = assay: Antibacterial activity against Enterococcus faecalis FB-1 assessed as reduction in visible bacterial growth incubated for 16 to 20 hrs by microdilution broth assay; type: functional; details: time 16-20 hrs
Enterococcus faecalis [10] = assay: Inhibition of biofilm formation of Enterococcus faecalis FB-1 assessed as inhibitory rate of formation at 100 uM for 24 hrs measured at 570 nm by crystal violet staining based spectrophotometry; type: functional
Enterococcus faecalis [11] = assay: Bactericidal activity against Enterococcus faecalis OG1RF assessed as reduction in bacterial colonies incubated for 16 to 20 hrs by microdilution broth analysis; type: functional; details: time 16-20 hrs, read-out: MBC99.9
Staphylococcus aureus [12] = assay: Antibacterial activity against Staphylococcus aureus ATCC 35556 assessed as reduction in visible bacterial growth incubated for 16 to 20 hrs by microdilution broth assay; type: functional; details: time 16-20 hrs
Enterococcus faecalis [13] = assay: Bactericidal activity against Enterococcus faecalis OG1RF assessed as reductions in colony forming unit in presence of ampicillin after 24 hrs by time-killing assay; type: functional, organism-based
Enterococcus faecalis [14] = assay: Bactericidal activity against Enterococcus faecalis OG1RF assessed as reductions in colony forming unit in presence of vancomycin within 3 hrs by time-killing assay; type: functional, organism-based
[15] = system: Staphylococcus epidermidis; assay: Antibacterial activity against Staphylococcus epidermidis ATCC 35984 assessed as reduction in visible bacterial growth incubated for 16 to 20 hrs by microdilution broth assay; type: functional; details: time 16-20 hrs
Enterococcus faecalis [16] = assay: Antibiofilm activity against Enterococcus faecalis assessed as reduction in amount of viable biofilm-embedded bacterial cells at 50 uM measured by YTO 9/PI staining followed by confocal laser scanning microscopy; type: functional
Enterococcus faecalis [17] = assay: Antibiofilm activity against Enterococcus faecalis FB-1 assessed as inhibition of biofilm infection at 25 uM by fluid shear system; type: functional, organism-based
Enterococcus faecalis [18] = assay: Antibiofilm activity against Enterococcus faecalis FB-1 assessed as inhibition of biofilm maturation measured after 24 hr; type: functional, organism-based
[19] = system: Staphylococcus epidermidis; assay: Antibacterial activity against Staphylococcus epidermidis ATCC 12228 assessed as reduction in visible bacterial growth incubated for 16 to 20 hrs by microdilution broth assay; type: functional; details: time 16-20 hrs
Enterococcus faecalis [20] = assay: Antibiofilm activity against Enterococcus faecalis assessed as fold reduction in yycG gene expression at 25 uM incubated for 6 hrs by qRT-PCR analysis; type: functional
Enterococcus faecalis [21] = assay: Binding affinity to Enterococcus faecalis FB-1 YycG assessed as slow association and rapid dissociation measured by Octet RED96 response assay
Enterococcus faecalis [22] = assay: Antibiofilm activity against Enterococcus faecalis assessed as fold reduction in epbOX gene expression at 25 uM incubated for 6 hrs by qRT-PCR analysis; type: functional
Enterococcus faecalis [23] = assay: Antibacterial activity against Enterococcus faecalis OG1RF assessed as reduction in visible bacterial growth incubated for 16 to 20 hrs by microdilution broth assay; type: functional; details: time 16-20 hrs
Enterococcus faecalis [24] = assay: Bactericidal activity against Enterococcus faecalis OG1RF assessed as reductions in colony forming unit in presence of linezolid after 24 hrs by time-killing assay; type: functional, organism-based
Enterococcus faecalis [25] = assay: Bactericidal activity against Enterococcus faecalis OG1RF assessed as reductions in colony forming unit in presence of vancomycin after 24 hrs by time-killing assay; type: functional, organism-based
Enterococcus faecalis [26] = assay: Bactericidal activity against Enterococcus faecalis OG1RF assessed as reductions in colony forming unit in presence of ampicillin within 3 hrs by time-killing assay; type: functional, organism-based
[27] = Hemolytic activity against human erythrocytes at 200 uM incubated for 1 hr at 570 nm by spectrophotometry; type: ADME, tissue-based, Erythrocyte; details: read-out: Activity
Enterococcus faecalis [28] = assay: Antimicrobial activity against Enterococcus faecalis OG1RF assessed as reduction in visible bacterial growth incubated for 16 to 20 hrs by microdilution broth assay; type: functional; details: time 16-20 hrs
Enterococcus faecalis [29] = assay: Antibiofilm activity against Enterococcus faecalis assessed as fold reduction in gelE gene expression at 25 uM incubated for 6 hrs by qRT-PCR analysis; type: functional
Escherichia coli = assay: Antibacterial activity against Escherichia coli […] assessed as reduction in visible bacterial growth incubated for 16 to 20 hrs by microdilution broth assay; type: functional; details: time 16-20 hrs
Enterococcus faecalis [30] = assay: Antibacterial activity against clinical strain Enterococcus faecalis assessed as inhibition of bacterial growth; type: functional
Enterococcus faecalis [31] = assay: Bactericidal activity against Enterococcus faecalis OG1RF assessed as reductions in colony forming unit in presence of linezolid within 3 hrs by time-killing assay; type: functional, organism-based
Enterococcus faecalis [32] = assay: Antibacterial activity against clinical strain vancomycin-resistant Enterococcus faecalis assessed as inhibition of bacterial growth; type: functional
Enterococcus faecalis [33] = assay: Antibacterial activity against ATc induced Enterococcus faecalis OG1RF-asryycG silencing strain assessed as fold reduction in MIC relative to wild type; type: functional
Enterococcus faecalis [34] = assay: Antibiofilm activity against Enterococcus faecalis FB-1 assessed as eradication of mature biofilm by semiquantitative microtiter assay; type: functional, organism-based
Enterococcus faecalis [35] = assay: Antibiofilm activity against Enterococcus faecalis assessed as fold reduction in […] gene expression at 25 uM incubated for 6 hrs by qRT-PCR analysis; type: functional
[36] = Hemolytic activity against human erythrocytes at 50 uM incubated for 1 hr at 570 nm by spectrophotometry; type: ADME, tissue-based, Erythrocyte; details: read-out: Activity
Enterococcus faecalis [37] = assay: Antibacterial activity against clinical strain linozelid-resistant Enterococcus faecalis assessed as inhibition of bacterial growth; type: functional
Enterococcus faecalis [38] = assay: Antibacterial activity against Enterococcus faecalis ATCC 29212 assessed as reduction in visible bacterial growth incubated for 16 to 20 hrs by microdilution broth assay; type: functional; details: time 16-20 hrs
Enterococcus faecium = assay: Antibacterial activity against Enterococcus faecium EF16M64 assessed as reduction in visible bacterial growth incubated for 16 to 20 hrs by microdilution broth assay; type: functional; details: time 16-20 hrs
Enterococcus faecalis [39] = assay: Bacteriostatic activity against planktonic cells of Enterococcus faecalis OG1RF measured by microdilution broth assay; type: functional, organism-based
Enterococcus faecalis [40] = assay: Antibiofilm activity against Enterococcus faecalis FB-1 assessed as inhibition of biofilm maturation at 1.56 uM measured after 24 hr; type: functional, organism-based

Q: Which MIC (Streptococcus agalactiae) does the source give for CCOC(=O)c1c(CN2CCN(C)CC2)n(-c2ccccc2)c2ccc(OS(=O)(=O)c3ccc(C)cc3)cc12 here?
A: 12.5 µM (≈ 6.85 µg/mL)

Q: What about the IC50 [1] of the same compound?
A: 42.9 µM

Q: And the “fold change (FC)” value (Enterococcus faecalis [2])?
A: 3

Q: And the MIC (Staphylococcus aureus [3])?
A: 12.5 µM (≈ 6.85 µg/mL)

Q: What about the CC50 [4] of the same compound?
A: > 200 µM

Q: And the “fold change (FC)” value (Enterococcus faecalis [5])?
A: 2

Q: And the “fold change (FC)” value (Enterococcus faecalis [6])?
A: 2

Q: What about the Activity (Enterococcus faecalis [7]) of the same compound?
A: 74.8%

Q: And the OD (Enterococcus faecalis [8])?
A: 0.186

Q: And the MIC (Enterococcus faecalis [9])?
A: 50 µM (≈ 27.4 µg/mL)

Q: What about the inhibition at 100 µM (Enterococcus faecalis [10]) of the same compound?
A: 96.2%

Q: And the MBC (Enterococcus faecalis [11])?
A: 100 µM (≈ 54.8 µg/mL)

Q: What about the MIC (Staphylococcus aureus [12]) of the same compound?
A: 12.5 µM (≈ 6.85 µg/mL)

Q: And the Activity (Enterococcus faecalis [13])?
A: Active

Q: What about the Activity (Enterococcus faecalis [14]) of the same compound?
A: Active

Q: And the MIC [15]?
A: 12.5 µM (≈ 6.85 µg/mL)

Q: And the Activity (Enterococcus faecalis [16])?
A: 18.29%

Q: What about the Activity (Enterococcus faecalis [17]) of the same compound?
A: Active

Q: And the Activity (Enterococcus faecalis [18])?
A: Dose-Dependent Effect

Q: What about the MIC [19] of the same compound?
A: 12.5 µM (≈ 6.85 µg/mL)

Q: What about the “fold change (FC)” value (Enterococcus faecalis [20]) of the same compound?
A: 20

Q: And the Activity (Enterococcus faecalis [21])?
A: Active

Q: What about the “fold change (FC)” value (Enterococcus faecalis [22]) of the same compound?
A: 2

Q: What about the MIC (Enterococcus faecalis [23]) of the same compound?
A: 25 µM (≈ 13.7 µg/mL)

Q: What about the Activity (Enterococcus faecalis [24]) of the same compound?
A: Active

Q: What about the Activity (Enterococcus faecalis [25]) of the same compound?
A: Active

Q: And the Activity (Enterococcus faecalis [26])?
A: Active

Q: And the hemolysis at 1 h, 200 µM [27]?
A: 28.2%

Q: What about the MIC (Enterococcus faecalis [28]) of the same compound?
A: 25 µM (≈ 13.7 µg/mL)

Q: What about the “fold change (FC)” value (Enterococcus faecalis [29]) of the same compound?
A: 2

Q: And the MIC (Escherichia coli)?
A: > 200 µM

Q: What about the MIC (Enterococcus faecalis [30]) of the same compound?
A: 25 µM (≈ 13.7 µg/mL)

Q: And the Activity (Enterococcus faecalis [31])?
A: Active

Q: What about the MIC50 (Enterococcus faecalis [32]) of the same compound?
A: 50 µM (≈ 27.4 µg/mL)

Q: And the “fold change (FC)” value (Enterococcus faecalis [33])?
A: 4

Q: And the Activity (Enterococcus faecalis [34])?
A: inactive

Q: What about the “fold change (FC)” value (Enterococcus faecalis [35]) of the same compound?
A: 2

Q: What about the hemolysis at 1 h, 50 µM [36] of the same compound?
A: 24.1%

Q: And the MIC90 (Enterococcus faecalis [37])?
A: 100 µM (≈ 54.8 µg/mL)

Q: What about the MIC (Enterococcus faecalis [38]) of the same compound?
A: 25 µM (≈ 13.7 µg/mL)

Q: What about the MIC (Enterococcus faecium) of the same compound?
A: 25 µM (≈ 13.7 µg/mL)

Q: Which Activity (Enterococcus faecalis [39]) does the source give for O=C(C1=C(O)C(=O)N(c2nnc(SCc3ccc(F)cc3)s2)C1c1cccc(O)c1)c1cc2ccccc2o1 (configuration not stated) here?
A: inactive

Q: And the IC50 [1]?
A: > 200 µM

Q: What about the Activity (Enterococcus faecalis [40]) of the same compound?
A: Active

Q: And the CC50 [4]?
A: > 200 µM

Q: And the inhibition at 100 µM (Enterococcus faecalis [10])?
A: 75.5%

Q: And the MBC (Enterococcus faecalis [11])?
A: > 200 µM

Q: What about the Activity (Enterococcus faecalis [18]) of the same compound?
A: Dose-Dependent Effect

Q: What about the hemolysis at 1 h, 200 µM [27] of the same compound?
A: 3.83%

Q: And the MIC (Enterococcus faecalis [28])?
A: > 200 µM

Q: And the Activity (Enterococcus faecalis [34])?
A: inactive

Q: And the hemolysis at 1 h, 50 µM [36]?
A: 1.94%
